According to patent US6576652B2, “Use of an angiotensin II receptor antagonist for the preparation of drugs to increase the survival rate of renal transplant patients” (Merck Sharp & Dohme (Italia) S.p.A., priority 1997, dated 2003):

Key:
conscious Dogs = experiment: Hypotensive effects before and after furosemide in conscious dogs; format: in vivo, dog; conditions: cumulative iv 0.3 to 3 mg/kg
Text: The hypotensive effects of 2-butyl-4-chloro-1-[(2′-(1H-tetrazol-5-yl)biphenyl-4-yl)methyl]-5-hydroxymethylimidazole sodium salt were compared before and after furosemide administration to conscious Dogs.

[1] = tested on: bilaterally nephrectomized Lewis rats transplanted with kidney from Fisher 344 donor rat; experiment: Chronic renal allograft failure rat model, 6 month follow-up; conditions: for FSGS % (range) / Animal survival / Proteinuria / SBP: end of 6 month follow-up; for Animal survival: allograft rats; for Proteinuria / SBP: mean ±SD
Description: Transplanted rats received cyclosporine (5 mg/kg/day i.m.) for the first 10 days to prevent acute rejection, and doses of antihypertensive drugs were adjusted to maintain blood pressure within the normal range.

[2] = tested on: awake rats made hypertensive by ligation of the left renal artery; experiment: Antihypertensive effects in renal hypertensive rats; format: in vivo, rat; conditions: Table 1
Description: This procedure increases blood pressure by increasing renin production with consequent elevation of All levels. Compounds are administered orally at 100 mg/kg and/or intravenously via a cannula in the jugular vein at 10 mg/kg. Arterial blood pressure is continuously measured directly through a carotid artery cannula and recorded using a pressure transducer and a polygraph. Blood pressure levels after treatment are compared to pretreatment levels to determine the antihypertensive effects of the compounds (See Table 1). Compounds listed in Table 2 were tested in the same manner as described for Table 1, except that in the test for anti hypertensive effects in renal hypertensive rats, the compounds were administered orally at 30 mg/kg and intravenously at 3 mg/kg.

SMILES	Effect on blood pressure (conscious Dogs; after furosemide 10 mg/kg im at 18 and 2 hours before)	Inhibition of pressor response to AII (conscious Dogs; after furosemide 10 mg/kg im)	Inhibition of pressor response to AII (conscious Dogs; before furosemide, 10 min post dose)	Effect on blood pressure (conscious Dogs; normotensive conscious dogs, before furosemide, n=4)	FSGS % (range) [1]	Animal survival [1] [%]	Proteinuria [1]	SBP [1] [mm HG]	Antihypertensive Effects in Renal Hypertensive Rats Intravenous Activity ([2]; intravenous, 10 mg/kg)	Antihypertensive Effects in Renal Hypertensive Rats Oral Activity ([2]; oral, 100 mg/kg)	Protection from chronic allograft injury and long-term animal survival ([1]; at comparable level of SBP control)
CCCCc1nc(Cl)c(CO)n1Cc1ccc(-c2ccccc2-c2nnn[nH]2)cc1.[Na] [2-butyl-4-chloro-1-[(2′-(1H-tetrazol-5-yl)biphenyl-4-yl)methyl]-5-hydroxymethylimidazole sodium salt]	caused a significant decrease	inhibited the pressor response to AII at the two higher doses	effective in inhibiting the pressor response to AII	did not lower blood pressure							
CCOC(=O)C1=C(C)NC(C)=C(C(=O)OCC)C1c1ccccc1/C=C/C(=O)OC(C)(C)C [Lacidipine, reference compound]					15 (10-20) %	34	167 ± 26° mg/day	125 ± 7			
CCCCc1nc(Cl)c(CO)n1Cc1ccc(-c2ccccc2-c2nn[nH]n2)cc1 [Losartan, 2-n-butyl-4-chloro-5-hydroxymothyl-1-[(2′-(1H-tetrazol-5-yl)biphenil-4-yl)methyl]imidazole]					3 (0-10) %	100	71 ± 46 mg/day	114 ± 12	+ (Significant decrease in blood pressure at 10, mg/kg or less)	+ (Significant decrease in blood pressure at 100 mg/kg or less)	effectively protects animals from chronic allograft injury
